Measurements as given in PMC7819857, “Identification of Inhibitors of Integrin Cytoplasmic Domain Interactions With Syk” (Frontiers in Immunology, 2021).
Where two headings read alike, the source gives them in different places.

What was measured:
[1] = target: T1, integrin β3 cytoplasmic domain : tandem SH2 domains of Syk (GST-Syk(6-370)) (Homo sapiens, UniProt P43405); assay: AlphaScreen of integrin β3 cytoplasmic domain peptide binding to GST-Syk(6-370); conditions: for fold difference in inhibition, primary screen over false-positive counter screen (hit criterion): re-sourced compounds, counter screen with biotinylated GST; for inhibition of fluorescent signal in the primary screen, re-sourced compounds (hit criterion): re-sourced from a separate commercial source, 25 uM in text, 30 uM in legend of Figure 2C
T1 construct: the tandem SH2 domains of Syk (residues 6-370); made in house; host or cells: E. coli BL21(DE3)
Procedure: The following HTS assay was developed to identify antagonists of the interaction between the integrin β3 cytoplasmic domain and the non-receptor tyrosine kinase Syk. […] ( Figure 1E ). Background signals in this assay were determined by omitting the integrin β3 peptide. Specific assay conditions are described in Table 1 . […] Then, either dimethyl sulfoxide control or compound was added, followed by biotinylated β3 peptide, and avidin-coated AlphaScreen donor beads. After a 4-h incubation period at room temperature (while protected from light), assays plates were read on an Infinite M1000 (Tecan) multiplate reader (Ex. 680/30; Em. 570/100).
Figure 3 Dose-response curves in primary and orthogonal screens. (A) AlphaScreen dose-response curves. […] Data are expressed as mean fluorescence (Fl520) ± range from duplicates, and one representative experiment of “n” performed is shown. (B) Orthogonal ELISA-based dose-response assays. […] Data are expressed as mean abs450 ± SEM from triplicate determinations, and one of three representative experiments is shown. (C) Ceftazidime inhibition of β3 peptide binding to Syk from THP-1 whole cell lysate. THP-1 cell lysate (100 ug) was treated with or without ceftazidime (Ctaz) before incubation with β3-coated avidin-agarose beads, and bound Syk was measured by western blot (example shown in inset). Blank beads served as a negative control. Equal β3 peptide loading was verified by probing blots with avidin-HRP (not shown).

[2] = target: T2, integrin β3 cytoplasmic domain (bβ3(fl)) : GST-Syk(6-370) (Homo sapiens, UniProt P43405); assay: ELISA-based orthogonal assay, bβ3(fl) and GST-Syk(6-370); format: binding
T2 construct: the tandem SH2 domains of Syk (residues 6-370); made in house; host or cells: E. coli BL21(DE3)
Procedure: For ELISA-based assays, 96-well plates (Costar cat# 9018) were coated overnight at 4°C with neutravidin (Thermo Scientific, cat#31050) in 10 mM Tris pH 9 and 100 mM NaCl. After overnight incubation, non-specific binding sites were blocked with bovine serum albumin (BSA) (2% w/v) for at least 1 h at room temperature. Plates were washed in 25 mM HEPES pH 7.5, 100 mM NaCl, 0.1% BSA, and 0.01% TritonX-100 (assay buffer), and indicated biotinylated β3 peptide was incubated for at least 2 h at room temperature (0.5–3 ug/ml in di-H2O). After washing in the assay buffer, GST-fusion proteins were added (50 ul, indicated concentrations) and incubated at room temperature for 1 h in assay buffer. For compound inhibition studies, compounds were added to GST-fusion proteins (at indicated concentrations) before they were added to plates. Plates were washed 3× with assay buffer (200 ul) to remove unbound GST-fusion protein. Horseradish peroxidase (HRP)-conjugated anti-GST antibody [Polyclonal anti-GST(Z-5)-HRP, Santa Cruz Biotechnology, cat #sc-459 0.2 ug/ml] was incubated in washed plates in 50 ul assay buffer for 45 min at room temperature. After washing, the signal was generated with 1-step Ultra TMB-ELISA (Thermo Scientific, cat#34028), stopped with 2 N H2SO4, and read on a plate reader (SPARK 10M/Tecan) at 450 nm.
Figure 3 Dose-response curves in primary and orthogonal screens. (A) AlphaScreen dose-response curves. […] Data are expressed as mean fluorescence (Fl520) ± range from duplicates, and one representative experiment of “n” performed is shown. (B) Orthogonal ELISA-based dose-response assays. […] Data are expressed as mean abs450 ± SEM from triplicate determinations, and one of three representative experiments is shown. (C) Ceftazidime inhibition of β3 peptide binding to Syk from THP-1 whole cell lysate. THP-1 cell lysate (100 ug) was treated with or without ceftazidime (Ctaz) before incubation with β3-coated avidin-agarose beads, and bound Syk was measured by western blot (example shown in inset). Blank beads served as a negative control. […]

[3] = Solubility under assay conditions; format: physicochemical
GST-free Syk(6-370) = target: T3, GST-free Syk(6-370) (Homo sapiens, UniProt P43405); assay: Thermal denaturation assay (SYPRO orange); format: binding; conditions: Syk(6-370) 2 µM, dose-dependent
T3 construct: Syk 6-370 (GST tag removed by thrombin cleavage) was used; GST (N, cleaved yes); made in house; host or cells: E. coli BL21(DE3)
Procedure: In this assay, Syk 6-370 (GST tag removed by thrombin cleavage) was used. Thrombin (GE Healthcare cat#270846, reconstituted in PBS to 1 unit/ul) was applied to the GST-Syk 6-370 protein bound to the Glutathione Sepharose beads. The GST-tag was cleaved with 20 unit/1 ml of protein-GST beads in PBS overnight at room temperature. After chromatography and additional cleaning on GST-beads, the purified protein was verified by SDS-PAGE. For thermal denaturation experiments, GST-free Syk(6-370) was used at a final concentration of 2 µM and SYPRO orange (Thermo Scientific, cat# S6650) at a 0.08% (v/v) dilution (from a 5000x stock). Compounds were used at indicated concentrations. Numerous reaction buffers were initially screened, and a final buffer containing 25 mM HEPES (pH 7.5) with 100 mM NaCl was used. Assays were performed in 20 µl volumes, in triplicate, in 384-well plates (Applied Biosystems MicroAmp 384-well clear optical reaction plate, catalogue #4483285). Plates were sealed with Applied Biosystems Optical Adhesive Cover (cat#4360954) and centrifuged for 2 min at 800 × g at room temperature. Thermal denaturation was measured on a Quant Studio 6 Flex Real-time PCR system (Applied Biosystems). […]

[4] = Figure 3A: biotinylated-b3(sh) peptide 30 nM, GST-Syk(6-370) 0.3 nM, read-out: IC50, AlphaScreen dose-response

Row | IC50 [1, 4] [µM] | fold difference in inhibition, primary screen over false-positive counter screen (hit criterion) [1] | inhibition of fluorescent signal in the primary screen, re-sourced compounds (hit criterion) [1] | inhibitory activity in ELISA-based orthogonal assay [2] | solubility for retest in primary and false-positive screens ([3]; re-sourced hit retest, 30 uM) | solubility under ELISA assay conditions ([3]; ELISA assay buffer, highest doses tested) | IC50 ([1]; abstract summary for both compounds, read-out: IC50 range, inhibition of integrin β-subunit cytoplasmic domain binding to the tandem SH2 domains of Syk) [µM] | IC50 ([1]; as restated in the Discussion, read-out: IC50 in AlphaScreen assays) [µM] | IC50 ([1]; biotinylated-b3(sh) peptide 30 nM, GST-Syk(6-370) 0.3 nM, read-out: value printed in Figure 3A, AlphaScreen dose-response (no measure name)) [µM] | effect on melting temperature (Tm) of Syk(6-370) (GST-free Syk(6-370)) | Compound
1 | 0.038 ± 0.019 | greater than 3 fold | greater than 50% | did not demonstrate inhibitory activity | – | – | – | – | – | – | neomycin sulfate
2 | – | – | – | – | lack of solubility | – | – | – | – | – | CC[C@@]1(O)C(=O)OCc2c1cc1n(c2=O)Cc2cc3c(CN(C)C)c(O)ccc3nc2-1 [topotecan]
3 | 22.4 ± 4.1 | greater than 3 fold | greater than 50% | – | – | not soluble at the highest doses tested | – | – | – | – | C=C1c2cccc(O)c2C(=O)C2=C(O)[C@]3(O)C(=O)C(C(N)=O)=C(O)[C@@H](N(C)C)[C@@H]3[C@@H](O)[C@H]12 [methacycline]
4 | 4.9 ± 4.2 | greater than 3 fold | greater than 50% | remained active | – | – | 1.02 to 4.9 | 4.2 | 4.89 ± 4.2 | decreased | NC(=O)c1cc[n+](CC2=C(C(=O)O)N3C(=O)[C@@H](NC(=O)[C@@H](c4ccccc4)S(=O)(=O)[O-])[C@H]3SC2)cc1 [cefsulodin]
